target: T1, human GlyT1c transporter (Homo sapiens, UniProt P48067); assay: Radioligand binding assay using recombinant CHO cell membranes expressing human GlyT1; conditions: radioligand binding to human GlyT1c transporter-expressing membranes
T1 construct: expressed in transfected cells; host or cells: CHO cells (recombinant; line hGlyT1c_5_CHO is named for the uptake assay)
T1 sequence (P48067 1-706): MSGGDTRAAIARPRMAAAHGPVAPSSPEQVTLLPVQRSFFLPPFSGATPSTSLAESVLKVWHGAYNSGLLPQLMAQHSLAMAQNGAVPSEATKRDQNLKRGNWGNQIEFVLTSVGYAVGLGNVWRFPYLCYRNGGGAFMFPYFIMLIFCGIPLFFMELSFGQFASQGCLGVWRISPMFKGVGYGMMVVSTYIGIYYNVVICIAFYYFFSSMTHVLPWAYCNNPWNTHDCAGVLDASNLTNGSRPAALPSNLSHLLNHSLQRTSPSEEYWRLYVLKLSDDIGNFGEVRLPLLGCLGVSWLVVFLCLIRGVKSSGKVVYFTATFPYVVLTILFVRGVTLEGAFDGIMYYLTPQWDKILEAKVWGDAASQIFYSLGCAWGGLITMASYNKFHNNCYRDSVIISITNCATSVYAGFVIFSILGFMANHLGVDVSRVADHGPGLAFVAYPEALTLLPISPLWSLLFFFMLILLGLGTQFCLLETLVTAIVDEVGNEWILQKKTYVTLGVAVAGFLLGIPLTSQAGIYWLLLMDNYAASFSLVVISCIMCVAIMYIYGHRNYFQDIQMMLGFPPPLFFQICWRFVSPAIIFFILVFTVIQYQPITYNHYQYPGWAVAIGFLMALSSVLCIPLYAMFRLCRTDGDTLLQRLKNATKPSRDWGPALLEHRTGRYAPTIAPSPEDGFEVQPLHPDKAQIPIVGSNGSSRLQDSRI
Description: 2. Radioligand binding assays using recombinant CHO cell membranes expressing human GlyT1: […]

Row | Structure (SMILES) | Ki [nM]
1 | Cn1cnc(S(=O)(=O)N2C[C@@H](COc3ccc(C(F)(F)F)cc3Cl)[C@H](c3ccc(F)cc3)C2)c1 (relative stereo) [Example 294, 4-{[trans-3-{[2-chloro-4-(trifluoromethyl)phenoxy]methyl}-4-(4-fluorophenyl)pyrrolidin-1-yl]sulfonyl}-1-methyl-1H-imidazole] | ≤ 10
2 | Cn1cnc(S(=O)(=O)N2C[C@@H](C(=O)c3cccc(Cl)c3)[C@H](c3ccc(F)cc3)C2)c1 (relative stereo) [Example 297, (3-chlorophenyl){trans-4-(4-fluorophenyl)-1-[(1-methyl-1H-imidazol-4-yl)sulfonyl]pyrrolidin-3-yl}methanone] | ≤ 10
3 | Cc1cccc(C(=O)[C@@H]2CN(S(=O)(=O)c3cn(C)cn3)C[C@H]2c2ccc(F)cc2)c1 (relative stereo) [Example 300, {trans-4-(4-fluorophenyl)-1-[(1-methyl-1H-imidazol-4-yl)sulfonyl]pyrrolidin-3-yl}(3-methylphenyl)methanone] | ≤ 1000
4 | Cn1cnc(S(=O)(=O)N2C[C@@H](C(=O)c3cccc(C(F)(F)F)c3)[C@H](c3ccc(F)cc3)C2)c1 (relative stereo) [Example 302, {trans-4-(4-fluorophenyl)-1-[(1-methyl-1H-imidazol-4-yl)sulfonyl]pyrrolidin-3-yl}[3-(trifluoromethyl)phenyl]methanone] | ≤ 100
5 | Cn1cnc(S(=O)(=O)N2C[C@@H](C(=O)Nc3cccc(Cl)c3)[C@H](c3ccc(F)cc3)C2)c1 (relative stereo) [Example 304, trans-N-(3-chlorophenyl)-4-(4-fluorophenyl)-1-[(1-methyl-1H-imidazol-4-yl)sulfonyl]pyrrolidine-3-carboxamide] | ≤ 1000
6 | Cn1cnc(S(=O)(=O)N2C[C@@H](Nc3ccc(Cl)c(OC(F)(F)F)c3)[C@H](c3ccc(F)cc3)C2)c1 (relative stereo) [Example 306, trans-N-[4-chloro-3-(trifluoromethoxy)phenyl]-4-(4-fluorophenyl)-1-[(1-methyl-1H-imidazol-4-yl)sulfonyl]pyrrolidin-3-amine] | ≤ 100
7 | Cn1cnc(S(=O)(=O)N2C[C@@H](CNc3ccc(C(F)(F)F)c(Cl)c3)[C@H](c3ccc(F)cc3)C2)c1 (relative stereo) [Example 311, 3-chloro-N-({trans-4-(4-fluorophenyl)-1-[(1-methyl-1H-imidazol-4-yl)sulfonyl]pyrrolidin-3-yl}methyl)-4-(trifluoromethyl)aniline] | ≤ 1000
8 | Cn1cnc(S(=O)(=O)N2C[C@@H](CNc3ccc(F)c(Cl)c3)[C@H](c3ccc(F)cc3)C2)c1 (relative stereo) [Example 314, 3-chloro-4-fluoro-N-({trans-4-(4-fluorophenyl)-1-[(1-methyl-1H-imidazol-4-yl)sulfonyl]pyrrolidin-3-yl}methyl)aniline] | ≤ 1000
9 | Cc1cccc(NC(=O)[C@@H]2CN(S(=O)(=O)c3cn(C)cn3)C[C@H]2c2ccc(F)cc2)c1 (relative stereo) [Example 316, trans-4-(4-fluorophenyl)-1-[(1-methyl-1H-imidazol-4-yl)sulfonyl]-N-(3-methylphenyl)pyrrolidine-3-carboxamide] | ≤ 1000
10 | Cn1cnc(S(=O)(=O)N2C[C@@H](C(=O)Nc3cccc(C(F)(F)F)c3)[C@H](c3ccc(F)cc3)C2)c1 (relative stereo) [Example 317, Trans-4-(4-fluorophenyl)-1-[(1-methyl-1H-imidazol-4-yl)sulfonyl]-N-[3-(trifluoromethyl)phenyl]pyrrolidine-3-carboxamide] | ≤ 1000
11 | Cn1cnc(S(=O)(=O)N2C[C@@H](COc3ccc(F)c(Cl)c3)[C@H](c3ccc(F)cc3)C2)c1 (relative stereo) [Example 318, 4-{[Trans-3-[(3-chloro-4-fluorophenoxy)methyl]-4-(4-fluorophenyl)pyrrolidin-1-yl]sulfonyl}-1-methyl-1H-imidazole] | ≤ 1000
12 | Cn1cnc(S(=O)(=O)N2C[C@@H](CNc3ccc(C(F)(F)F)cc3Cl)[C@H](c3ccc(F)cc3)C2)c1 (relative stereo) [Example 332, 2-Chloro-N-({trans-4-(4-fluorophenyl)-1-[(1-methyl-1H-imidazol-4-yl)sulfonyl]pyrrolidin-3-yl}methyl)-4-(trifluoromethyl)aniline] | ≤ 100
13 | Cc1cccc(NC[C@@H]2CN(S(=O)(=O)c3cn(C)cn3)C[C@H]2c2ccc(F)cc2)c1 (relative stereo) [Example 334, N-({Trans-4-(4-fluorophenyl)-1-[(1-methyl-1H-imidazol-4-yl)sulfonyl]pyrrolidin-3-yl}methyl)-3-methylaniline] | ≤ 1000

Further lines, results first:

Row | Ki [nM] | Structure (SMILES)
14 | ≤ 100 | Cn1cnc(S(=O)(=O)N2C[C@@H](CNc3ccc(C(F)(F)F)cc3)[C@H](c3ccc(F)cc3)C2)c1 (relative stereo) [Example 291, N-({trans-4-(4-fluorophenyl)-1-[(1-methyl-1H-imidazol-4-yl)sulfonyl]pyrrolidin-3-yl}methyl)-4-(trifluoromethyl)aniline]
15 | ≤ 1000 | Cn1cnc(S(=O)(=O)N2C[C@@H](CNc3cc(Cl)cc(Cl)c3)[C@H](c3ccc(F)cc3)C2)c1 (relative stereo) [Example 292, 3,5-dichloro-N-({trans-4-(4-fluorophenyl)-1-[(1-methyl-1H-imidazol-4-yl)sulfonyl]pyrrolidin-3-yl}methyl)aniline]
16 | ≤ 100 | Cn1cnc(S(=O)(=O)N2C[C@@H](COc3cccc(C(F)(F)F)c3)[C@H](c3ccc(F)cc3)C2)c1 (relative stereo) [Example 293, 4-{[trans-3-(4-fluorophenyl)-4-{[3-(trifluoromethyl)phenoxy]methyl}pyrrolidin-1-yl]sulfonyl}-1-methyl-1H-imidazole]
17 | ≤ 100 | Cn1cnc(S(=O)(=O)N2C[C@@H](COc3ccc(F)c(C(F)(F)F)c3)[C@H](c3ccc(F)cc3)C2)c1 (relative stereo) [Example 295, 4-{[trans-3-(4-fluorophenyl)-4-{[4-fluoro-3-(trifluoromethyl)phenoxy]methyl}pyrrolidin-1-yl]sulfonyl}-1-methyl-1H-imidazole]
18 | ≤ 100 | Cc1cccc(OC[C@@H]2CN(S(=O)(=O)c3cn(C)cn3)C[C@H]2c2ccc(F)cc2)c1 (relative stereo) [Example 296, 4-({trans-3-(4-fluorophenyl)-4-[(3-methylphenoxy)methyl]pyrrolidin-1-yl}sulfonyl)-1-methyl-1H-imidazole]
19 | ≤ 10 | Cn1cnc(S(=O)(=O)N2C[C@@H](Nc3ccc(F)c(OC(F)(F)F)c3)[C@H](c3ccccc3)C2)c1 (relative stereo) [Example 298, trans-N-[4-fluoro-3-(trifluoromethoxy)phenyl]-1-[(1-methyl-1H-imidazol-4-yl)sulfonyl] -4-phenylpyrrolidin-3-amine]
20 | ≤ 1000 | Cn1cnc(S(=O)(=O)N2C[C@@H](Nc3ccc(Cl)c(OC(F)(F)F)c3)[C@H](c3ccccc3)C2)c1 (relative stereo) [Example 299, trans-N-[4-chloro-3-(trifluoromethoxy)phenyl]-1-[(1-methyl-1H-imidazol-4-yl)sulfonyl]-4-phenylpyrrolidin-3-amine]
21 | ≤ 100 | Cn1cnc(S(=O)(=O)N2C[C@@H](NCc3ccc(Cl)cc3Cl)[C@H](c3ccccn3)C2)c1 (relative stereo) [Example 307, trans-N-(2,4-dichlorobenzyl)-1-[(1-methyl-1H-imidazol-4-yl)sulfonyl]-4-(pyridin-2-yl)pyrrolidin-3-amine]
22 | ≤ 1000 | Cn1cnc(S(=O)(=O)N2C[C@@H](CNc3ccc(F)c(C(F)(F)F)c3)[C@H](c3ccc(F)cc3)C2)c1 (relative stereo) [Example 313, 4-fluoro-N-({trans-4-(4-fluorophenyl)-1-[(1-methyl-1H-imidazol-4-yl)sulfonyl]pyrrolidin-3-yl}methyl)-3-(trifluoromethyl)aniline]
23 | ≤ 1000 | Cn1cnc(S(=O)(=O)N2C[C@@H](CNCc3ccccc3)[C@H](c3ccc(F)cc3)C2)c1 (relative stereo) [Example 315, N-benzyl-1-{trans-4-(4-fluorophenyl)-1-[(1-methyl-1H-imidazol-4-yl)sulfonyl]pyrrolidin-3-yl}methanamine]
24 | ≤ 10 | Cn1cnc(S(=O)(=O)N2C[C@@H](NCc3ccc(C(F)(F)F)cc3Cl)[C@H](c3ccccn3)C2)c1 (relative stereo) [Example 320, trans-N-[2-chloro-4-(trifluoromethyl)benzyl]-1-[(1-methyl-1H-imidazol-4-yl)sulfonyl]-4-(pyridin-2-yl)pyrrolidin-3-amine]
25 | ≤ 1000 | Cn1cnc(S(=O)(=O)N2C[C@@H](CNc3cccc(Cl)c3)[C@H](c3ccc(F)cc3)C2)c1 (relative stereo) [Example 333, 3-Chloro-N-({trans-4-(4-fluorophenyl)-1-[(1-methyl-1H-imidazol-4-yl)sulfonyl]pyrrolidin-3-yl}methyl)aniline]
